# Target: T1, purified human MAP4K4 kinase domain (Homo sapiens, UniProt O95819)
# T1 construct: purified human MAP4K4 kinase domain
# Assay: MAP4K4 Inhibition Assay Protocol No. 1 (Caliper LabChip, moesin-derived peptide phosphorylation)
# Assay type: biochemical
# Settings: Assay 1; 1 nM enzyme, 10 uM ATP, 45 min
# Experimental: The kinase activity of purified human MAP4K4 kinase domain was measured by monitoring the phosphorylation of a peptide substrate derived from moesin protein (Leu-Gly-Arg-Asp-Lys-Tyr-Lys-Thr-Leu-Arg-Gln-Ile-Arg-Gln) fluorescently labeled on the N-terminus with 5-carboxyfluorescein using the Caliper LabChip technology (Caliper Life Sciences, Hopkinton, Mass.). To determine inhibition constants (IC50), compounds were serially diluted in DMSO and added to 10 uL kinase reactions containing 1 nM purified MAP4K4 enzyme, 1 uM peptide substrate, 10 uM ATP, 10 mM MgCl2, 1 mM EGTA, 50 mM Hepes pH 7.2, 1 mM DTT, 0.01% Triton X-100, and 2% DMSO. Reactions were incubated at room temperature in Perkin Elmer Proxiplates for 45 minutes and stopped by the addition of 10 uL of an EDTA-containing solution (50 mM Hepes pH 7.2, 40 mM EDTA, 0.02% Triton X-100). The fraction of phosphorylated peptide was determined as a fraction of total peptide substrate using the Caliper Lab Chip 3000 according to the manufacturer's instructions. IC50 values were determined using the four-parameter non-linear fit model.
# T1 sequence (O95819 25-289 limits assumed): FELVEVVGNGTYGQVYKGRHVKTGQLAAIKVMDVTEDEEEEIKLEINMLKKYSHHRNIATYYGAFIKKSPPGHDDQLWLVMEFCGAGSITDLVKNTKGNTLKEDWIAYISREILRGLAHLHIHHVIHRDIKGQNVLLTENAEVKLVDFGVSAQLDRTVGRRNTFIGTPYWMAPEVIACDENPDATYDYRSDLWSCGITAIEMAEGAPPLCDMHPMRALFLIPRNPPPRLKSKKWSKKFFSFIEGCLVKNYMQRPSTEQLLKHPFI
row,IC50 [µM],SMILES
1,0.238,"CNC(=O)C1CN(C(=O)c2cnc(N)c3cc(-c4cccc(F)c4)ccc23)CCO1 (stereo not shown) [Example 60, 4-[1-amino-7-(3-fluorophenyl)isoquinoline-4-carbonyl]-N-methyl-morpholine-2-carboxamide]"
2,0.12,"Nc1ncc(C(=O)NC2CCOCC2)c2ccc(-c3cccc(F)c3)cc12 [Example 68, 1-amino-7-(3-fluorophenyl)-N-tetrahydropyran-4-yl-isoquinoline-4-carboxamide]"
3,1.7,"Nc1ncc(C(=O)N2CCN(CCO)CC2)c2ccc(-c3cccc(F)c3)cc12 [Example 65, [1-amino-7-(3-fluorophenyl)-4-isoquinolyl]-[4-(2-hydroxyethyl)piperazin-1-yl]methanone]"
4,2.4,"CN(C)CCNC(=O)c1cnc(N)c2cc(-c3cccc(F)c3)ccc12 [Example 46, 1-amino-N-[2-(dimethylamino)ethyl]-7-(3-fluorophenyl) isoquinoline-4-carboxamide]"
5,1.2,"NCc1cnc(N)c2cc(-c3cccc(F)c3)ccc12 [Example 5, 4-(aminomethyl)-7-(3-fluorophenyl)isoquinolin-1-amine]"
6,0.217,"CN1CCN(CCNC(=O)c2cnc(N)c3cc(-c4cccc(F)c4)ccc23)CC1 [Example 83, 1-amino-7-(3-fluorophenyl)-N-[2-(4-methylpiperazin-1-yl)ethyl]isoquinoline-4-carboxamide]"
7,0.0388,"Nc1ncc(C(=O)NC2CC(O)C2)c2ccc(-c3cccc(F)c3)cc12 (stereo not shown) [Example 3, 1-amino-7-(3-fluorophenyl)-N-(3-hydroxycyclobutyl)isoquinoline-4-carboxamide]"
8,0.00129,"Nc1ncc(C(=O)NC2CC2)c2ccc(-c3cccc(F)c3)nc12 [Example 13, 8-amino-N-cyclopropyl-2-(3-fluorophenyl)-1,7-naphthyridine-5-carboxamide]"
9,0.0327,"NC(=O)c1cnc(N)c2cc(-c3cccc(F)c3)ccc12 [Example 66, 1-amino-7-(3-fluorophenyl) isoquinoline-4-carboxamide]"
10,0.4,"Nc1ncc(C(=O)NC2CNC2)c2ccc(-c3cccc(F)c3)cc12 [Example 124, 1-amino-N-(azetidin-3-yl)-7-(3-fluorophenyl) isoquinoline-4-carboxamide]"
11,0.122,"CN(C)C(=O)c1nc(CNC(=O)c2cnc(N)c3cc(-c4cccc(F)c4)ccc23)no1 [Example 1, 3-[[[1-amino-7-(3-fluorophenyl)isoquinoline-4-carbonyl]amino]methyl]-N,N-dimethyl-1,2,4-oxadiazole-5-carboxamide]"
12,0.0377,"Cc1ncccc1NC(=O)c1cnc(N)c2cc(-c3cccc(F)c3)ccc12 [Example 105, 1-amino-7-(3-fluorophenyl)-N-(2-methyl-3-pyridyl) isoquinoline-4-carboxamide]"
13,0.95,"CC(C)(CNC(=O)c1cnc(N)c2cc(-c3cccc(F)c3)ccc12)N1CCOCC1 [Example 88, 1-amino-7-(3-fluorophenyl)-N-(2-methyl-2-morpholino-propyl)isoquinoline-4-carboxamide]"
14,0.0452,"CNC(=O)c1nc(CNC(=O)c2cnc(N)c3cc(-c4cccc(F)c4)ccc23)no1 [Example 87, 3-[[[1-amino-7-(3-fluorophenyl)isoquinoline-4-carbonyl]amino]methyl]-N-methyl-1,2,4-oxadiazole-5-carboxamide]"
15,0.249,"Nc1ncc(C(=O)NCC2CCOCC2)c2ccc(-c3cccc(F)c3)cc12 [Example 56, 1-amino-7-(3-fluorophenyl)-N-(tetrahydropyran-4-ylmethyl)isoquinoline-4-carboxamide]"
16,0.102,"CC(=O)N1CCC(NC(=O)c2cnc(N)c3cc(-c4cccc(F)c4)ccc23)CC1 [Example 57, N-(1-acetyl-4-piperidyl)-1-amino-7-(3-fluorophenyl) isoquinoline-4-carboxamide]"

row,IC50 [µM],SMILES
1,0.0156,"Nc1ncc(C(=O)NC2CC2)c2ccc(-c3cccc(F)c3)cc12 [Example 108, 1-amino-N-cyclopropyl-7-(3-fluorophenyl) isoquinoline-4-carboxamide]"
2,0.25,"CC(=O)NCCNC(=O)c1cnc(N)c2cc(-c3cccc(F)c3)ccc12 [Example 80, N-(2-acetamidoethyl)-1-amino-7-(3-fluorophenyl) isoquinoline-4-carboxamide]"
3,0.245,"Nc1ncc(C(=O)NCCN2CCS(=O)(=O)CC2)c2ccc(-c3cccc(F)c3)cc12 [Example 76, 1-amino-N-[2-(1,1-dioxo-1,4-thiazinan-4-yl)ethyl]-7-(3-fluorophenyl) isoquinoline-4-carboxamide]"
4,0.138,"Nc1ncc(C(=O)NCC(=O)N2CCOCC2)c2ccc(-c3cccc(F)c3)cc12 [Example 81, 1-amino-7-(3-fluorophenyl)-N-(2-morpholino-2-oxo-ethyl)isoquinoline-4-carboxamide]"
5,0.0459,"Nc1ncc(C(=O)NC2CCCC2)c2ccc(-c3cccc(F)c3)cc12 [Example 98, 1-amino-N-cyclopentyl-7-(3-fluorophenyl) isoquinoline-4-carboxamide]"
6,0.0645,"Nc1ncc(C(=O)NCc2ccncc2)c2ccc(-c3cccc(F)c3)cc12 [Example 93, 1-amino-7-(3-fluorophenyl)-N-(4-pyridylmethyl) isoquinoline-4-carboxamide]"
7,0.146,"Nc1ncc(C(=O)NCCN2CCCCC2=O)c2ccc(-c3cccc(F)c3)cc12 [Example 58, 1-amino-7-(3-fluorophenyl)-N-[2-(2-oxo-1-piperidyl)ethyl]isoquinoline-4-carboxamide]"
8,0.0221,"N#Cc1cnc(N)c2cc(-c3cccc(F)c3)ccc12 [Example 4, 1-amino-7-(3-fluorophenyl)isoquinoline-4-carbonitrile]"
9,0.388,"Nc1ncc(C(=O)NCCS(=O)(=O)N2CCCC2)c2ccc(-c3cccc(F)c3)cc12 [Example 53, 1-amino-7-(3-fluorophenyl)-N-(2-pyrrolidin-1-ylsulfonylethyl) isoquinoline-4-carboxamide]"
10,0.0391,"Cc1cc(NC(=O)c2cnc(N)c3cc(-c4cccc(F)c4)ccc23)ccn1 [Example 95, 1-amino-7-(3-fluorophenyl)-N-(2-methyl-4-pyridyl) isoquinoline-4-carboxamide]"
11,2.1,"Nc1ncc(C(=O)O)c2ccc(-c3cccc(F)c3)cc12 [Example 123, 1-amino-7-(3-fluorophenyl) isoquinoline-4-carboxylic acid]"
12,0.0175,"COCc1ccc(NC(=O)c2cnc(N)c3cc(-c4cccc(F)c4)ccc23)cc1 [Example 54, 1-amino-7-(3-fluorophenyl)-N-[4-(methoxymethyl)phenyl]isoquinoline-4-carboxamide]"
13,0.0124,"Nc1ncc(C(=O)Nc2cccnc2)c2ccc(-c3cccc(F)c3)cc12 [Example 107, 1-amino-7-(3-fluorophenyl)-N-(3-pyridyl)isoquinoline-4-carboxamide]"
14,1.5,"NC(=O)C1CCN(C(=O)c2cnc(N)c3cc(-c4cccc(F)c4)ccc23)CC1 [Example 50, 1-[1-amino-7-(3-fluorophenyl)isoquinoline-4-carbonyl] piperidine-4-carboxamide]"
15,0.0731,"Nc1ncc(C(=O)NC2CCOC2)c2ccc(-c3cccc(F)c3)cc12 (stereo not shown) [Example 112, 1-amino-7-(3-fluorophenyl)-N-tetrahydrofuran-3-yl-isoquinoline-4-carboxamide]"
